Our source for the TGI and GI50 values is PubChem BioAssay (NCI).

Test systems include DMS 273 small cell lung; HL-60(TB) leukemia; K-562 leukemia; LOX IMVI melanoma; OVCAR-3 ovarian; SF-268 CNS; TK-10 renal; UACC-257 melanoma; SF-539 CNS; HOP-92 NSCLC.
Holding throughout (assay): DTP human tumour cell line panel, 48 h

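A five-concentration, 48-hour dose response in 96-well plates underlies each endpoint, interpolated linearly between surrounding concentrations. GI50 = concentration required for 50% inhibition of growth. TGI: concentration producing complete growth inhibition.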 Where only a bound is given, the exact number is not on record here.

For the molecule `COc1cccc(C(=O)O)c1Cc1cccc2ccccc12`, the TGI with DMS 273 small cell lung, in the assay on HL-60(TB) leukemia, in the assay with K-562 leukemia, in the assay with LOX IMVI melanoma, in the assay with OVCAR-3 ovarian and in the assay with SF-268 CNS was above 100 µM each time. Besides, the TGI with TK-10 renal and with UACC-257 melanoma was above 100 µM each time.

Take `CC(=O)N1C(=O)C(=O)c2cc(Cl)ccc21`: the TGI with DMS 273 small cell lung, in the assay with HL-60(TB) leukemia, in the assay with K-562 leukemia, in the assay with LOX IMVI melanoma, in the assay on OVCAR-3 ovarian and in the assay on SF-268 CNS was above 100 µM throughout. Besides, the TGI with SF-539 CNS and with TK-10 renal was above 100 µM in each case.

Consider `O=C(CN1C(=O)c2ccccc2C1=O)OC1C=CCCC1` (centres undefined), for which the TGI in the assay with DMS 273 small cell lung, with HL-60(TB) leukemia, in the assay with K-562 leukemia, with SF-268 CNS, in the assay on SF-539 CNS and with TK-10 renal was above 100 µM throughout. In the assay with UACC-257 melanoma, this molecule showed a TGI above 100 µM.

As to `O=C1c2ccccc2C(=O)N1C/C=N/NS(=O)(=O)c1ccc(Cl)cc1`, the TGI in the assay with DMS 273 small cell lung, in the assay with HL-60(TB) leukemia, in the assay on K-562 leukemia, with LOX IMVI melanoma, in the assay on SF-268 CNS and in the assay on SF-539 CNS was above 100 µM throughout. The TGI in the assay with TK-10 renal and with UACC-257 melanoma was above 100 µM throughout.

`COC(=O)/C1=C/C2CC(/C=C(/c3ccccc3)C(=O)O1)C2`: the TGI in the assay with DMS 273 small cell lung is 53 µM; in the assay on HL-60(TB) leukemia, 60.6 µM; in the assay on K-562 leukemia, 96.1 µM; with LOX IMVI melanoma it was 40.3 µM; in the assay on OVCAR-3 ovarian, above 100 µM; with SF-539 CNS it was 89.8 µM. Besides, the TGI was above 100 µM in the assay with TK-10 renal and 23.2 µM with UACC-257 melanoma.

For the molecule `CCOC(=O)NC(=O)c1cn(-c2ccc(CCOC(=O)CCCCCCCCC(=O)OCCc3ccc(-n4cc(C(=O)NC(=O)OCC)c(=O)[nH]c4=O)cc3)cc2)c(=O)[nH]c1=O`, the TGI in the assay on HL-60(TB) leukemia was above 100 µM; in the assay on HOP-92 NSCLC it was 88.7 µM; in the assay with K-562 leukemia, above 100 µM; in the assay on LOX IMVI melanoma, above 100 µM; in the assay on OVCAR-3 ovarian, above 100 µM; with SF-268 CNS it was above 100 µM. For the same molecule, the TGI in the assay on SF-539 CNS, in the assay on TK-10 renal and in the assay with UACC-257 melanoma was above 100 µM in each case.

`c1ccc(CN2CCC3(CC2)ONC2=NCCN23)cc1`: the GI50 is 35400 nM in the assay with HL-60(TB) leukemia; 29300 nM with HOP-92 NSCLC; 42.8 µM with K-562 leukemia; 21700 nM in the assay with LOX IMVI melanoma; 19500 nM in the assay with OVCAR-3 ovarian; 89.8 µM in the assay with SF-268 CNS. Moreover, the GI50 with SF-539 CNS was 96.3 µM; in the assay with TK-10 renal it was 72000 nM; in the assay with UACC-257 melanoma it was above 100000 nM. For the same molecule, the TGI is above 100 µM in the assay on HL-60(TB) leukemia; 59.1 µM with HOP-92 NSCLC; above 100 µM in the assay on K-562 leukemia; 55.5 µM with LOX IMVI melanoma; 87.3 µM in the assay with OVCAR-3 ovarian; above 100 µM with SF-268 CNS. The TGI in the assay with SF-539 CNS, in the assay on TK-10 renal and with UACC-257 melanoma was above 100 µM each time.

In the case of `COc1ccc(S(=O)(=O)N2CCCCC2)cc1NC(=O)c1[nH]c(C)c2c1CCCCC2=O`, the GI50 in the assay on HL-60(TB) leukemia was 444 nM; in the assay on HOP-92 NSCLC it was 590 nM; in the assay with K-562 leukemia it was 1.75 µM; with LOX IMVI melanoma, 887 nM; in the assay with OVCAR-3 ovarian, 2640 nM; in the assay with SF-268 CNS, 7.91 µM. Besides, the figures for the GI50 in the assay with SF-539 CNS, in the assay on TK-10 renal and with UACC-257 melanoma were 2.31 µM, 658 nM and 853 nM, respectively. Moreover, the TGI in the assay on HL-60(TB) leukemia is 6.86 µM; with HOP-92 NSCLC, 48.6 µM; in the assay on K-562 leukemia, above 100 µM; with LOX IMVI melanoma it was 2.79 µM; in the assay with OVCAR-3 ovarian, above 100 µM; in the assay on SF-268 CNS, above 100 µM. Moreover, the TGI with SF-539 CNS was above 100 µM; with TK-10 renal it was 38.1 µM; in the assay on UACC-257 melanoma, 24.7 µM.

Regarding `CN(C)c1ccc2c(SCC(=O)OCC(=O)[C@@]3(O)CC[C@H]4[C@@H]5CCC6=CC(=O)C=C[C@]6(C)[C@H]5C(=O)C[C@@]43C)c3ccc(N(C)C)cc3nc2c1`, the TGI in the assay on HL-60(TB) leukemia is above 20.5 µM; in the assay with HOP-92 NSCLC, above 64.6 µM; with K-562 leukemia, above 70.4 µM; with LOX IMVI melanoma it was above 100 µM; in the assay with OVCAR-3 ovarian, above 100 µM; in the assay with SF-268 CNS it was above 100 µM. Further, the results for the TGI in the assay with SF-539 CNS, with TK-10 renal and in the assay on UACC-257 melanoma were above 56.3 µM, 48.8 µM and above 77.5 µM, respectively.

For `Cc1occc1C(=S)Nc1ccc(Cl)c(C(=O)OCC2CC2)c1`, the TGI is 75.3 µM in the assay on HL-60(TB) leukemia; above 100 µM with HOP-92 NSCLC; above 100 µM in the assay with K-562 leukemia; above 100 µM in the assay with LOX IMVI melanoma; above 100 µM in the assay with OVCAR-3 ovarian; above 100 µM in the assay with SF-268 CNS. For the same molecule, the TGI with SF-539 CNS, in the assay with TK-10 renal and in the assay with UACC-257 melanoma was above 100 µM each time.

Turning to `CCCN(CCC)c1ccc(C=O)c(OC)c1`, the GI50 in the assay with HL-60(TB) leukemia is 12400 nM; in the assay with HOP-92 NSCLC it was 13300 nM; in the assay with K-562 leukemia it was 19.2 µM; in the assay on LOX IMVI melanoma, 25800 nM; in the assay on OVCAR-3 ovarian it was 15100 nM; in the assay on SF-268 CNS it was 22 µM. Further, the GI50 is 26 µM with SF-539 CNS, 24200 nM in the assay with TK-10 renal and 18500 nM with UACC-257 melanoma. Moreover, the TGI with HL-60(TB) leukemia is 38 µM; with HOP-92 NSCLC it was 86.7 µM; with K-562 leukemia it was above 100 µM; in the assay with LOX IMVI melanoma it was above 100 µM; with OVCAR-3 ovarian, 33.9 µM; in the assay on SF-268 CNS, above 100 µM. The TGI with SF-539 CNS is above 100 µM; in the assay with TK-10 renal it was 86.1 µM; with UACC-257 melanoma it was 61.2 µM.

Consider `Cn1c(-c2c(N)n(Cc3ccc(Cl)cc3)c3nc(C#N)c(C#N)nc23)nc2ccccc21`, for which the GI50 was 16900 nM with HL-60(TB) leukemia; 2350 nM in the assay with HOP-92 NSCLC; 17.3 µM with K-562 leukemia; 1140 nM in the assay with LOX IMVI melanoma; 1370 nM in the assay on OVCAR-3 ovarian; 16.3 µM in the assay with SF-268 CNS. Moreover, the GI50 is 6.64 µM with SF-539 CNS, 6900 nM with TK-10 renal and 13500 nM in the assay with UACC-257 melanoma. The TGI with HL-60(TB) leukemia is above 50 µM; in the assay with HOP-92 NSCLC, 10.1 µM; in the assay on K-562 leukemia it was above 50 µM; in the assay with LOX IMVI melanoma, 5.68 µM; in the assay with OVCAR-3 ovarian it was 6.2 µM; with SF-268 CNS it was above 50 µM. Besides, the TGI was 14.5 µM in the assay with SF-539 CNS, 15.8 µM with TK-10 renal and above 50 µM in the assay with UACC-257 melanoma.

For `C/C(=C\c1ccccc1)C(O)S(=O)(=O)O` (centres undefined), the TGI in the assay on DMS 273 small cell lung, with HL-60(TB) leukemia, in the assay with K-562 leukemia, with LOX IMVI melanoma, in the assay on OVCAR-3 ovarian and in the assay with SF-268 CNS was above 100 µM throughout. The TGI with TK-10 renal and in the assay on UACC-257 melanoma was above 100 µM throughout.

In the case of `COc1ncnc2c1ncn2C/C(Br)=C(\Br)CCl`, the GI50 is 2030 nM in the assay with HL-60(TB) leukemia; 4080 nM in the assay on HOP-92 NSCLC; 3.29 µM in the assay on K-562 leukemia; 2790 nM in the assay with LOX IMVI melanoma; 1770 nM in the assay with OVCAR-3 ovarian; 1.96 µM with SF-268 CNS. Moreover, the values for the GI50 in the assay on SF-539 CNS, with TK-10 renal and in the assay on UACC-257 melanoma were 2.17 µM, 2540 nM and 775 nM, respectively. The TGI with HL-60(TB) leukemia stood at 6.32 µM; with HOP-92 NSCLC it was 16.4 µM; with K-562 leukemia, 10.9 µM; in the assay with LOX IMVI melanoma, 9.61 µM; in the assay with OVCAR-3 ovarian it was 3.22 µM; in the assay on SF-268 CNS it was 5.59 µM. The TGI amounted to 7.61 µM with SF-539 CNS, 7.64 µM in the assay with TK-10 renal and 3.9 µM in the assay on UACC-257 melanoma.

`C[C@]1(O)CC(=O)[C@]2(O)C3=C(C=C[C@]2(O)C1)C(=O)c1c(O)cccc1C3=O`: the GI50 was 2050 nM with HL-60(TB) leukemia; 1510 nM in the assay on HOP-92 NSCLC; 0.706 µM in the assay on K-562 leukemia; 2250 nM in the assay on LOX IMVI melanoma; 1230 nM in the assay on OVCAR-3 ovarian; 5.16 µM in the assay with SF-268 CNS. For the same molecule, the GI50 in the assay on SF-539 CNS is 4.67 µM; in the assay with TK-10 renal it was 2270 nM; with UACC-257 melanoma, 1680 nM. The TGI with HL-60(TB) leukemia is 4.5 µM; with HOP-92 NSCLC, 2.9 µM; with K-562 leukemia, 5.28 µM; in the assay on LOX IMVI melanoma, 5.77 µM; in the assay with OVCAR-3 ovarian, 2.62 µM; in the assay with SF-268 CNS, 20.5 µM. Further, the TGI with SF-539 CNS came out at 17 µM; with TK-10 renal, 3.97 µM; with UACC-257 melanoma it was 3.21 µM.

For `CCCCn1c(=O)c(/C=C/C(=O)/C=C/c2ccc(O)c(OC)c2)cc2ccc(Cl)cc21`, the GI50 in the assay with HL-60(TB) leukemia was 2340 nM; with HOP-92 NSCLC it was 1750 nM; with K-562 leukemia, 2.82 µM; in the assay with LOX IMVI melanoma it was 1510 nM; in the assay with OVCAR-3 ovarian, 1700 nM; with SF-268 CNS, 1.96 µM. Moreover, the GI50 in the assay with SF-539 CNS was 1.62 µM; in the assay with TK-10 renal, 2510 nM; with UACC-257 melanoma, 1410 nM. The TGI with HL-60(TB) leukemia is 13.4 µM; in the assay with HOP-92 NSCLC, 4.19 µM; in the assay with K-562 leukemia it was 12.8 µM; in the assay with LOX IMVI melanoma, 2.84 µM; with OVCAR-3 ovarian it was 3.24 µM; in the assay with SF-268 CNS it was 5.43 µM. The figures for the TGI with SF-539 CNS, in the assay with TK-10 renal and in the assay with UACC-257 melanoma were 3.18 µM, 5.47 µM and 3.31 µM, respectively.

For the molecule `S=C1SC2(CCCCCC2)NC2=C1CCCCC2`, the TGI is 38.5 µM with HL-60(TB) leukemia; 67.3 µM in the assay on HOP-92 NSCLC; above 100 µM in the assay with K-562 leukemia; above 100 µM in the assay with LOX IMVI melanoma; above 100 µM in the assay with OVCAR-3 ovarian; above 100 µM in the assay on SF-268 CNS. In addition, the TGI was above 100 µM in the assay on SF-539 CNS, above 100 µM in the assay on TK-10 renal and 67.1 µM with UACC-257 melanoma.

The TGI is the concentration at which net growth stops. In general, GI50 refers to the concentration at which growth is held to half of that of the control.
